Experimental data published in PMC12362587, “Untargeted Diversity-Oriented Synthesis for the Discovery of New Antitumor Agents: An Integrated Approach of Inverse Virtual Screening, Bioinformatics, and Omics for Target Deconvolution” (Journal of Medicinal Chemistry, 2025).
“And” between values parts separate entries of the source, which are not always exact repeats. Identical values can stand only once.

How the values were obtained:
SHSY5Y = experiment: MTT cell viability assay; assay type: cell-based; conditions: Homo sapiens, SH-SY5Y, 24 h, compounds 0.01–40 μM, read-out: In Vitro Cytotoxicity, EC50 ± SD, SHSY5Y
From the text: (§1) Initially, we phenotypically screened the synthesized compounds over a panel of tumor cell lines composed of HEPG2, A375, SHSY5Y, MCF7, and A549 derived from liver tumor, melanoma, neuroblastoma, breast cancer, and lung adenocarcinoma, respectively. We also considered the HaCaT cell line, coming from keratinocytes, as a healthy control line. As reference, cytotoxic chemotherapeutic agent 5-fluorouracil (5-FU) has been used. The results obtained performing the MTT (3-(4,5-dimethylthiazolyl-2)-2,5-diphenyltetrazolium bromide) assay are summarized in Table .
(§2) The human neuroblastoma SHSY5Y, melanoma A375, human breast cancer MCF7, nonsmall lung cancer A549, and human epidermal keratinocyte HaCaT cell lines were obtained from ATCC and were grown in Dulbecco’s Modified Eagle Medium (DMEM) supplemented with 10% (v/v) FBS, 2 mM L-glutamine, 100 U/mL penicillin, and 0.1 mg/mL streptomycin.
(§3) Cell viability was established by measuring mitochondrial metabolic activity with MTT. In brief, HEPG2 (1 × 10^4 cells/well), A375 (2 × 10^3 cells/well), HaCaT (3 × 10^3 cells/well), A549 (3 × 10^3 cells/well), SHSY5Y (2 × 10^4 cells/well), and MCF 7 (5 × 10^3 cells/well) were plated into 96-well plates for 24 h, then the compounds (0.01–40 μM) were added. After 24h, cells were replaced with a fresh medium containing 0.5 mg/mL MTT. Cells were incubated 1–3 h at 37 °C, then the medium was discarded, and formazan blue crystals in the cells were dissolved in 100 μL per well of a solution containing isopropanol/HCl 0.1 M. The absorbance was measured at 570 nm using a microplate reader (Multiskan Go, Thermo Scientific, Waltham, MA, USA). Cell viability was expressed as a percentage relative to the untreated cells cultured in medium with 0.1% DMSO and set to 100%, whereas 10% DMSO was used as positive control and set to 0% of viability. The EC50 values were calculated using GraphPad Prism 8.0 software by nonlinear regression of dose–response inhibition.

MCF7 = experiment: MTT cell viability assay; assay type: cell-based; conditions: Homo sapiens, 24 h, compounds 0.01–40 μM, read-out: In Vitro Cytotoxicity, EC50 ± SD, MCF7
From the text: as §1, §2, §3

A549 = experiment: MTT cell viability assay; assay type: cell-based; conditions: Homo sapiens, 24 h, compounds 0.01–40 μM, read-out: In Vitro Cytotoxicity, EC50 ± SD, A549
From the text: as §1, §2, §3

A375 = experiment: MTT cell viability assay; assay type: cell-based; conditions: Homo sapiens, A-375, 24 h, compounds 0.01–40 μM, read-out: In Vitro Cytotoxicity, EC50 ± SD, A375
From the text: as §1, §2, §3

[1] = molecular target: T1, protein-tyrosine kinase 6 (BRK) (Homo sapiens, UniProt Q13882); experiment: BRK kinase assay (BPS Bioscience); assay type: biochemical; conditions: top concentration 30 μM, read-out: EC50 or IC50, protein-tyrosine kinase 6
T1 construct: purchased BPS Bioscience
T1 sequence (Q13882 whole entry): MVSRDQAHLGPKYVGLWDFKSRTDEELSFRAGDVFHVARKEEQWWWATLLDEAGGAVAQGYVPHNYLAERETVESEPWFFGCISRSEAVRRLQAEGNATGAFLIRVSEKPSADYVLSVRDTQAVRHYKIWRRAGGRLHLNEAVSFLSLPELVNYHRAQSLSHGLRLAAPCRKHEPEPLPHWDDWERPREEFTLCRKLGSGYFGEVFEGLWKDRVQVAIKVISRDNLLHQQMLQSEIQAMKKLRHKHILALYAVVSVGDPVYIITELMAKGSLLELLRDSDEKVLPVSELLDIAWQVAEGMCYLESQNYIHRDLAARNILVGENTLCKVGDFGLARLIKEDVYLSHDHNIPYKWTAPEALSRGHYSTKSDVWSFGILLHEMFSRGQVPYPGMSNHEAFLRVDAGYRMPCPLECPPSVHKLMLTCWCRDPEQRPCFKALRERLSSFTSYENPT
Procedure: The assay was performed in a volume of 50 μL in a 96-well white plate. […] For activity measurement, the kinase (final concentration, 10 ng per reaction), PTK (Poly-Glu, Tyr 4:1; BRK substrate), ATP (final concentration, 500 μM) and compounds were incubated for 45 min at 30 °C. The compounds were added at different concentrations in the reaction buffer, starting from a final concentration of 30 μM. Buffer with the same amount of DMSO (1%) was used as a negative control. After the incubation time, ADP-Glo Kinase detection reagent was added for 45 min at room temperature. The generated luminescent signal was read in end point mode using a PerkinElmer AlphaScreen multimodal plate reader (PerkinElmer, Waltham, MA, USA). Experiments were performed in triplicate. IC50 values were calculated with GraphPad Prism 8.0 software by nonlinear dose–response inhibition regression.

MTT cell viability assay = assay type: cell-based, human; conditions: human, HaCaT keratinocyte cells (healthy control line), 24 h, compounds 0.01–40 μM, healthy control line, read-out: In Vitro Cytotoxicity, EC50 ± SD, HaCaT
From the text: as §1, §2, §3

[2] = molecular target: T2, Poly [ADP-ribose] polymerase tankyrase-1 (Homo sapiens, UniProt O95271); experiment: TNKS1 (PARP5A) Colorimetric Assay Kit (BPS Bioscience); assay type: biochemical; conditions: top concentration 30 μM; read-out: EC50 or IC50, Poly [ADP-ribose] polymerase tankyrase-1
T2 construct: (TNKS1) enzyme (amino acids 1001–1323; final concentration, 1.5 ng per reaction); purchased BPS Bioscience
T2 sequence (O95271 1001-1323): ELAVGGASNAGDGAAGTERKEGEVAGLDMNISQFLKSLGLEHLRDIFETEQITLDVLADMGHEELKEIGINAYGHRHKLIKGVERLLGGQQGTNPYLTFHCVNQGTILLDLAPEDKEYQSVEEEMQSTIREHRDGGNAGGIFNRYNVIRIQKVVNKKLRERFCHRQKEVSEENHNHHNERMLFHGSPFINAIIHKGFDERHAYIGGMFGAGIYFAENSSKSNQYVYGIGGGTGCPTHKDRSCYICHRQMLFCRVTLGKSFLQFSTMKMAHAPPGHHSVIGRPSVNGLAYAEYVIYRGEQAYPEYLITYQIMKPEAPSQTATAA
Procedure: The assay was performed in a volume of 50 μL in a 96-well transparent plate. The TNKS1 assay kit (PARP5A; BPS Bioscience, USA) was performed by first coating the 96-well plate with histone proteins, then left at 4 °C overnight. Next, Poly [ADP-ribose] polymerase tankyrase-1 (TNKS1) enzyme (amino acids 1001–1323; final concentration, 1.5 ng per reaction), a mixture of biotinylated NAD^+ (PARP substrate) and compounds were incubated for 1 h at room temperature. The compounds were added at different concentrations in the reaction buffer, starting from a final concentration of 30 μM. Buffer with the same amount of DMSO (1%) was used as a negative control. After incubation, the plate was treated with streptavidin-HRP followed by the addition of the colorimetric HRP substrate generating a colored solution. The generated signal was read at an absorbance of 450 nm using a microplate reader with UV/vis spectrophotometer (Multiskan Go, Thermo Fisher Scientific, Waltham, MA, USA). Experiments were performed in triplicate. IC50 values were calculated with GraphPad Prism 8.0 software by nonlinear dose–response inhibition regression.

human CB2R = human CB2R (Homo sapiens, UniProt P34972); experiment: Competition binding assay, displacement of [3H]-CP-55,940; parameters: host or cells: HEK-293 membranes; conditions: displacement of [3H]-CP-55,940, HEK-293 membranes; read-out: EC50 or IC50, cannabinoid receptor 2
human CB2R, sequence (P34972 whole entry): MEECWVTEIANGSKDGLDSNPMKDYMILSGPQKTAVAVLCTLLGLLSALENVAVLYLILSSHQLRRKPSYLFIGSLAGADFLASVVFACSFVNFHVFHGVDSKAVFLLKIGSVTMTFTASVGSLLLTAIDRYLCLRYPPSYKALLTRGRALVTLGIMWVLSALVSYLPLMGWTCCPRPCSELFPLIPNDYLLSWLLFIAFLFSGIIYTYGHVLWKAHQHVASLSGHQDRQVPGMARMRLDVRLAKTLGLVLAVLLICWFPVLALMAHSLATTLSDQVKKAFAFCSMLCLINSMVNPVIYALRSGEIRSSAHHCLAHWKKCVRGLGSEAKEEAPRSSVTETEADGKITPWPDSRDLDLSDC
Procedure: Binding assays at equilibrium were conducted as described in Di Micco et al., 2024. […]. All compounds were evaluated following the manufacturer’s protocol (PerkinElmer distributed by Revvity, Italy). […] The K i values were calculated using the Cheng-Prusoff equation, based on the IC50 values obtained through GraphPad PRISM software (version 10.2.2). The results are expressed as K i (μM), represented as mean ± SEM, and reflect the average of three independent experiments performed in duplicate.

IC50 [1]	IC50 [2]	IC50 (human CB2R)	SMILES	EC50 (SHSY5Y)	EC50 (MCF7)	EC50 (A549)	EC50 (A375)	EC50 at 24 h (MTT cell viability assay)
19 ± 3.04 µM	> 30 µM	9.7 ± 0.67 µM	CC(C)C[C@H]1C(=O)N(Cc2ccc(C(F)(F)F)cc2)c2ccccc2C(=O)N1Cc1ccc(C(F)(F)F)cc1 [Compound 31, (S)-3-Isobutyl-1,4-bis(4-(trifluoromethyl)benzyl)-3,4-dihydro-1H-benzo[e][1,4]diazepine-2,5-dione]	> 40 µM	17.3 ± 2.38 µM	> 40 µM	0.65 ± 0.4 µM	> 40 µM
29.2 ± 4.53 µM	> 30 µM	6.9 µM and 6.91 µM	CC(C)C[C@@H](C(=O)OCc1ccccc1)N1Cc2ccccc2NC1=O [Compound 63, Benzyl (S)-4-Methyl-2-(2-oxo-1,4-dihydroquinazolin-3(2H)-yl)pentanoate]	23.2 ± 4.17 µM	27.9 ± 2.44 µM	36.4 ± 3.15 µM	2.29 ± 1.12 µM	21.4 ± 0.78 µM
